Measured values reported in article PMC12006963, “Application of Deuterium in an M1 Positive Allosteric Modulator Back-Up Program: The Discovery of VU6045422” (ACS Chemical Neuroscience, 2025).
Entries after “also recorded” stand apart in the source; their conditions may differ. Where two headings read alike, the source gives them in different places.

Legend:
hERG [1] = target: T1, hERG (Homo sapiens, UniProt Q12809); parameters: method as in PMID 39660766; conditions: read-out: hERG manual patch clamp IC50; cited from earlier work
[2] = test system: fEPSPs in layer V medial prefrontal cortex (mPFC); assay: Slice electrophysiology, long-term depression of fEPSPs; parameters: species or system mouse; conditions: 10 μM; layer V recording, stimulation in layer II/III; n = 9
Experimental: While ago-PAMs induce substantial long-term depression that correlates with a lack of robust procognitive efficacy,[14],[16]−[21] […] Thus, PAM 5 maintains activity dependence of PFC function (Figure 3), and it is expected to display robust precognitive efficacy.
(A) Normalized time course of the fEPSP slope during baseline, application of 10 μM VU6045422 and washout. (B) Bar graph summarizing the averaged fEPSP slope during the last 5 min of washout (gray bar in panel (A)) compared to the baseline period (ns, p > 0.05, two-tailed paired t test, n = 9).

hERG [3] = target: T1, hERG; assay: hERG manual patch clamp; assay type: cell-based
CYP 2D6 = CYP 2D6 (Homo sapiens, UniProt P10635); assay: CYP isoform contribution to metabolism: 2D6; assay type: in vitro ADME
seizure activity = assay: Behavioral manifestations of seizure activity (modified Racine score); assay type: in vivo, C57Bl/6 mice; conditions: 100 mg/kg IP in mice; modified Racine scale 0-5
Experimental: page 9: Brain plasma concentration ratio (Kp) was calculated by dividing brain concentration by plasma concentration for each animal. Unbound brain to unbound plasma concentration ratio (Kp,uu) is calculated using the following formula: Kp,uu = (Brain ng/g x brain fu)/(plasma ng/ml x plasma fu). Pharmacokinetic profiles in rats following oral single escalating doses Single escalating oral dosing in Sprague-Dawley rats was performed at Frontage Laboratories according to their non-GLP Standard Operating Procedure and IACUC protocols. In short, compounds were formulated in 10% Tween 80 in water and dosed at 10 mg/kg. At different times, arterial blood was collected from a femoral artery catheter, and compound concentration was determined in plasma by LC-MS/MS following their non-GLP protocol. PK parameters were determined using Phoenix WinNonlin software (version 6.3). In-vitro determination of blood-brain barrier penetration potential Blood-brain barrier penetration was determined using MDR1-MDCK cell monolayers by Absorption Systems, following their protocol. In short, compounds were incubated at […] final concentration on one side of the cell monolayer for 2 hours. […] Animals were monitored continuously and scored for behavioral manifestations of seizure activity at 5, 15, 30 min, and 1 h. Behavioral manifestations of seizures were scored using a modified Racine scoring system. […]

Adenosine A3 = Adenosine A3 (Homo sapiens, UniProt P0DMS8); assay: Eurofins radioligand binding
Androgen (Testosterone) = Androgen (Testosterone) (Homo sapiens, UniProt P10275); assay: Eurofins radioligand binding
Bradykinin B1 = Bradykinin B1 (Homo sapiens, UniProt P46663); assay: Eurofins radioligand binding
[4] = test system: Calcium Channel L-Type, Benzothiazepine; assay: Eurofins radioligand binding; parameters: species or system Rat
[5] = test system: Calcium Channel L-Type, Dihydropyridine; assay: Eurofins radioligand binding; parameters: species or system Rat
Dopamine D4.2 = assay: Eurofins radioligand binding; parameters: species or system Human
[6] = target: Epidermal Growth Factor (EGF) (Homo sapiens, UniProt P00533); assay: Eurofins radioligand binding
[7] = test system: GABAA, Flunitrazepam, Central; assay: Eurofins radioligand binding; parameters: species or system Rat
Glutamate, NMDA, Glycine = assay: Eurofins radioligand binding; parameters: species or system Rat
[8] = test system: Glutamate, NMDA, Phencyclidine; assay: Eurofins radioligand binding; parameters: species or system Rat
Interleukin IL-1 R1 = Interleukin IL-1 R1 (Homo sapiens, UniProt P14778); assay: Eurofins radioligand binding
Melatonin MT1 = Melatonin MT1 (Homo sapiens, UniProt P48039); assay: Eurofins radioligand binding
Muscarinic M3 = Muscarinic M3 (Homo sapiens, UniProt P20309); assay: Eurofins radioligand binding
Neuropeptide Y Y2 = Neuropeptide Y Y2 (Homo sapiens, UniProt P49146); assay: Eurofins radioligand binding
[9] = target: Nicotinic Acetylcholine α3β4 (Homo sapiens, UniProt P30926+P32297); assay: Eurofins radioligand binding
Opiate κ (OP2, KOP) = Opiate κ (OP2, KOP) (Homo sapiens, UniProt P41145); assay: Eurofins radioligand binding
Opiate μ (OP3, MOP) = Opiate μ (OP3, MOP) (Homo sapiens, UniProt P35372); assay: Eurofins radioligand binding
Rolipram = assay: Eurofins radioligand binding; parameters: species or system Rat
Serotonin (5-HT2B) = Serotonin (5-HT2B) (Homo sapiens, UniProt P41595); assay: Eurofins radioligand binding
Sigma σ1 = Sigma σ1 (Homo sapiens, UniProt Q99720); assay: Eurofins radioligand binding
[10] = target: Transporter, Norepinephrine (NET) (Homo sapiens, UniProt P23975); assay: Eurofins radioligand binding
[11] = target: Transporter, Serotonin (SERT) (Homo sapiens, UniProt P31645); assay: Eurofins radioligand binding

T1 sequence (Q12809 whole entry): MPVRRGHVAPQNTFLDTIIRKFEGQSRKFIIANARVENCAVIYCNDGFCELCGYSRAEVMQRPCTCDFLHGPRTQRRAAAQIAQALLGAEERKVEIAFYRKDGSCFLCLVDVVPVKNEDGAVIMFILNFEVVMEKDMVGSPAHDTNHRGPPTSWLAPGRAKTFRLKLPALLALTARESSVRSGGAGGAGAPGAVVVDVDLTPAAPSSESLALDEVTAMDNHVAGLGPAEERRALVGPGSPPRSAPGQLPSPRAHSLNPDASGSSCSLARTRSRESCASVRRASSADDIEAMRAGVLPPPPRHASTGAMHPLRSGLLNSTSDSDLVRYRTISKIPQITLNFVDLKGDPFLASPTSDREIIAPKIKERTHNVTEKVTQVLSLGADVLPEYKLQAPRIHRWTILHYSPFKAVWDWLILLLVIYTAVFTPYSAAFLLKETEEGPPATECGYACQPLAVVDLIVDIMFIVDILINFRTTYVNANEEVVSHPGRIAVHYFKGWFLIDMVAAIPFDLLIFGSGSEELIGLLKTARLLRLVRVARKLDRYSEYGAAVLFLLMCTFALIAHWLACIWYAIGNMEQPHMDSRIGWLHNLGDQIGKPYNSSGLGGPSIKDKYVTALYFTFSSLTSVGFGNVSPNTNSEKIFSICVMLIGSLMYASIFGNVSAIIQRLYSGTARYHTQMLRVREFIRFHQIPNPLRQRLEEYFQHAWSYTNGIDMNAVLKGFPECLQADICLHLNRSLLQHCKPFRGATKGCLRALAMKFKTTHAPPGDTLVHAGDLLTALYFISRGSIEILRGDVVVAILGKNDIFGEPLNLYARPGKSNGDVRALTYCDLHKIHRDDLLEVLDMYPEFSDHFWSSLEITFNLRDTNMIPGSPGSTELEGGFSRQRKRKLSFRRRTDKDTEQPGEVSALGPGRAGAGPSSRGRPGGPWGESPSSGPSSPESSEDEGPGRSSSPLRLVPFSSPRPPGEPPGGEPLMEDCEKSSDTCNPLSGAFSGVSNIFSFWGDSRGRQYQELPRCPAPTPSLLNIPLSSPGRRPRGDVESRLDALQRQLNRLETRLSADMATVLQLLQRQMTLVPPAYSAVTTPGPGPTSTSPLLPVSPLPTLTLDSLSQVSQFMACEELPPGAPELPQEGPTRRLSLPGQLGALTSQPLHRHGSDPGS
Adenosine A3, sequence (P0DMS8 whole entry): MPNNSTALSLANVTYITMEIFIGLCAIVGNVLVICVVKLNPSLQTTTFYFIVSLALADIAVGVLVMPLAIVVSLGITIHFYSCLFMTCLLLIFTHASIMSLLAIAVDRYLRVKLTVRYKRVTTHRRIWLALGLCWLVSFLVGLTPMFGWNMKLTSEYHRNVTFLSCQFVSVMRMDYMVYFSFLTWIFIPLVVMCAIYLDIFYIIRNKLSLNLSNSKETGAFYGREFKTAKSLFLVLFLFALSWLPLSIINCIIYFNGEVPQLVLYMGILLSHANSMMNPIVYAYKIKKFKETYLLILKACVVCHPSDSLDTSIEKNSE
Sigma σ1, sequence (Q99720 whole entry): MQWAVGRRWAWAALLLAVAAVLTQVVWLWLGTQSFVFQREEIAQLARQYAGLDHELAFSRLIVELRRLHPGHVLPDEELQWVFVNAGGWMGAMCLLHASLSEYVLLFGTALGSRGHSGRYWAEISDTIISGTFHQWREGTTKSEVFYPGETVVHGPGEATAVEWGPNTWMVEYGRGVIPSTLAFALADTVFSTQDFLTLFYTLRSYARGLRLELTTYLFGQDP
Opiate μ (OP3, MOP), sequence (P35372 whole entry): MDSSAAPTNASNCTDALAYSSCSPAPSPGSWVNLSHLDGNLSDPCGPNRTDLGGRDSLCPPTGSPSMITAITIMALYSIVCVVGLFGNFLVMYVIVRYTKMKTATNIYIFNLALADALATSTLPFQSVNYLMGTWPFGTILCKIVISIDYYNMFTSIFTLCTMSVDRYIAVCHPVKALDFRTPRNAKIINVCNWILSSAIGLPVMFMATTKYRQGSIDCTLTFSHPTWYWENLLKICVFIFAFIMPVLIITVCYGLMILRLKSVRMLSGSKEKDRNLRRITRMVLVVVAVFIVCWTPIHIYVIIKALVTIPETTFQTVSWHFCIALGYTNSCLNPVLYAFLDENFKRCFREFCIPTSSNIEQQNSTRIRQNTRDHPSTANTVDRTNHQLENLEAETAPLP
Serotonin (5-HT2B), sequence (P41595 whole entry): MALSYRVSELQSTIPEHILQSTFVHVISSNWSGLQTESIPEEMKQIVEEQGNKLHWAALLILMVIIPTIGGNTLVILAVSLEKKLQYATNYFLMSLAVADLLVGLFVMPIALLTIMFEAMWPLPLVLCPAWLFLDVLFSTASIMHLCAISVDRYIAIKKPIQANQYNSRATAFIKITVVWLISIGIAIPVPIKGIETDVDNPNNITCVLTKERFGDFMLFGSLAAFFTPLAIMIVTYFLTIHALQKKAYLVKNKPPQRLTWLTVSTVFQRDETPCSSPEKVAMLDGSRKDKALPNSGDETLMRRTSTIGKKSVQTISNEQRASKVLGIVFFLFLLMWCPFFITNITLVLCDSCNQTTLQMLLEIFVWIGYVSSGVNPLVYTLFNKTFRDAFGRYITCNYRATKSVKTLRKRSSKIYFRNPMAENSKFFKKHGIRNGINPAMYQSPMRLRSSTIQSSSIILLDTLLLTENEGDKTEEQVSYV
Melatonin MT1, sequence (P48039 whole entry): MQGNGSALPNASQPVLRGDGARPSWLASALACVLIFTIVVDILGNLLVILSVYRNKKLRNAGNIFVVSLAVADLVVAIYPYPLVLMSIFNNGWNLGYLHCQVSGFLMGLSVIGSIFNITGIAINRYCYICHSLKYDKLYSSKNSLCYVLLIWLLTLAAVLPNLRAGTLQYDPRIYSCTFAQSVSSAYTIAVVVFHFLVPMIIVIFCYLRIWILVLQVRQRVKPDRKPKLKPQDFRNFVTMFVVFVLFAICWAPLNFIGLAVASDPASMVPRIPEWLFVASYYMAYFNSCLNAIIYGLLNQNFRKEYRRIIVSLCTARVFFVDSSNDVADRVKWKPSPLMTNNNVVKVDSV
Transporter, Norepinephrine (NET), sequence (P23975 whole entry): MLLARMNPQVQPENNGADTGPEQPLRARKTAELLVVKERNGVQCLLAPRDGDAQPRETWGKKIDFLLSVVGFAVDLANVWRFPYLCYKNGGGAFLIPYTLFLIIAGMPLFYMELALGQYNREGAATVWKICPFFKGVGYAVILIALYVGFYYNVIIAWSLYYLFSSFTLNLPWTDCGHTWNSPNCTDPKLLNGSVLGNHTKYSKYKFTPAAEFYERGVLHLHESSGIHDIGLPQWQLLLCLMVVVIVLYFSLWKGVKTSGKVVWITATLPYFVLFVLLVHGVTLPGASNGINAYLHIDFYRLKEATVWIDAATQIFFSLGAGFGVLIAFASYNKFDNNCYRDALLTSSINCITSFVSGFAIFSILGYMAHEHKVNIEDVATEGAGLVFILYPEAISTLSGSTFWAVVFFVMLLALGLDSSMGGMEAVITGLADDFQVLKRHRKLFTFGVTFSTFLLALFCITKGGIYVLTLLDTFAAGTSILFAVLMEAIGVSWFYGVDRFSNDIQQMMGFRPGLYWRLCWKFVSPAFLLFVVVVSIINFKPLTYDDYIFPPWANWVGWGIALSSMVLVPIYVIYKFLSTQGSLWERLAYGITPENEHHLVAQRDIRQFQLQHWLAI
Opiate κ (OP2, KOP), sequence (P41145 whole entry): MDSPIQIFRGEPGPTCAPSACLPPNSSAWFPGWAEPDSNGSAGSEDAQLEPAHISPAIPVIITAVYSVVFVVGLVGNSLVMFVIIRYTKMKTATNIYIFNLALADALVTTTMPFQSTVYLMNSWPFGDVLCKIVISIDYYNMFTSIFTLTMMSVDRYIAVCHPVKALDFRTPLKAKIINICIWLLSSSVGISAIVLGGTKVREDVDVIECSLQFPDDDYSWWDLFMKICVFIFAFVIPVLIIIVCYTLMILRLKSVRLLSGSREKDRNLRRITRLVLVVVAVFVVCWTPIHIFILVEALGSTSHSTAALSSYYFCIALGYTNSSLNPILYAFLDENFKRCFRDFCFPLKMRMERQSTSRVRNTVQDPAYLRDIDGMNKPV
Muscarinic M3, sequence (P20309 whole entry): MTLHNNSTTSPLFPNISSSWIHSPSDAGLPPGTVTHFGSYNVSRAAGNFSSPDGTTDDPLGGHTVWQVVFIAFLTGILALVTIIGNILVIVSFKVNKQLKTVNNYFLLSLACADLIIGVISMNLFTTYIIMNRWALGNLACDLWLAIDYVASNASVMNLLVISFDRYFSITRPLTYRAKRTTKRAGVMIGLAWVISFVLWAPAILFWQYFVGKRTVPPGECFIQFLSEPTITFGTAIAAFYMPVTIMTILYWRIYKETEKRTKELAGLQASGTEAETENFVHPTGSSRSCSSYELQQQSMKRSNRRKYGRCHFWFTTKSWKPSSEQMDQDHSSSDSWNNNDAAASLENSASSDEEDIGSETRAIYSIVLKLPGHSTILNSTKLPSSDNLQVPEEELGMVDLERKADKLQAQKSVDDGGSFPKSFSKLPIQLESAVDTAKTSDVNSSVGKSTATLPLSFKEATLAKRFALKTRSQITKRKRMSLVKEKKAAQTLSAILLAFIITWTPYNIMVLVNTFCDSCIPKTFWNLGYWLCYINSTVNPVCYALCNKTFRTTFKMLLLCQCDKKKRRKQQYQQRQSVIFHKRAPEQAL
Neuropeptide Y Y2, sequence (P49146 whole entry): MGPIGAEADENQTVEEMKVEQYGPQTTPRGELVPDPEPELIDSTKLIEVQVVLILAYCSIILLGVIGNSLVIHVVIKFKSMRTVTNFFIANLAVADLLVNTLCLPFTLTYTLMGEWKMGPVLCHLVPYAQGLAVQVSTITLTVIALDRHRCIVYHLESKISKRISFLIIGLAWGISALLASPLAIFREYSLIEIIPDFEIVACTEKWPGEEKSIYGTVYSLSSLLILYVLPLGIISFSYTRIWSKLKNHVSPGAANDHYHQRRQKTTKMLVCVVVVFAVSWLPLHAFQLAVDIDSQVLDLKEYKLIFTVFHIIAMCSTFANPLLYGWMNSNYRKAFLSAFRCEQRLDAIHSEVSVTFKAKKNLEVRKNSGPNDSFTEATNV

Q: For Cn1cc2c(-c3cc(F)c(CN4Cc5ncccc5C4=O)c(F)c3)cccc2n1 [compound 1], which IC50 (hERG [1]) is on record?
A: 12 µM

Q: For [2H]C1([2H])c2ncccc2C(=O)N1Cc1c(F)cc(-c2cccc3nn(C([2H])([2H])[2H])cc23)cc1F [compound 5], which “change in fEPSPs / long-term depression” value [2] is on record?
A: no significant changes; also recorded: did not induce a significant long-term depression

Q: What about the IC50 (hERG [3]) of the same compound?
A: 21 µM

Q: What about the “contribution of CYP 2D6 to metabolism” value (CYP 2D6) of the same compound?
A: 1.6%

Q: What about the Racine score (seizure activity) of the same compound?
A: 1

Q: And the inhibition at 10 µM (Adenosine A3)?
A: 12%

Q: What about the inhibition at 10 µM (Androgen (Testosterone)) of the same compound?
A: 0%

Q: And the inhibition at 10 µM (Bradykinin B1)?
A: 13%

Q: And the “% Inhibition at 10 µM” value [4]?
A: 15%

Q: And the “% Inhibition at 10 µM” value [5]?
A: 6%

Q: What about the “% Inhibition at 10 µM” value (Dopamine D4.2) of the same compound?
A: 13%

Q: And the inhibition at 10 µM [6]?
A: 3%

Q: What about the “% Inhibition at 10 µM” value [7] of the same compound?
A: 0%

Q: And the “% Inhibition at 10 µM” value (Glutamate, NMDA, Glycine)?
A: -8%

Q: And the “% Inhibition at 10 µM” value [8]?
A: -1%

Q: What about the inhibition at 10 µM (Interleukin IL-1 R1) of the same compound?
A: 8%

Q: What about the inhibition at 10 µM (Melatonin MT1) of the same compound?
A: 5%

Q: And the inhibition at 10 µM (Muscarinic M3)?
A: -10%

Q: What about the inhibition at 10 µM (Neuropeptide Y Y2) of the same compound?
A: -3%

Q: And the inhibition at 10 µM [9]?
A: -7%

Q: And the inhibition at 10 µM (Opiate κ (OP2, KOP))?
A: 9%

Q: And the inhibition at 10 µM (Opiate μ (OP3, MOP))?
A: 5%

Q: What about the “% Inhibition at 10 µM” value (Rolipram) of the same compound?
A: 10%

Q: And the inhibition at 10 µM (Serotonin (5-HT2B))?
A: 10%

Q: And the inhibition at 10 µM (Sigma σ1)?
A: 11%

Q: And the inhibition at 10 µM [10]?
A: 12%

Q: What about the inhibition at 10 µM [11] of the same compound?
A: -4%
